Here are results for one compound from US20090105349A1, “ANDROGEN MODULATORS” (WARNER-LAMBERT COMPANY LLC, priority 2004, published 2009).

Numbering of substitutions follows the chain as printed.

In assay [1] the target is T1, androgen receptor in MDA-MB453-MMTV clone 54-19 cells (Homo sapiens, UniProt P10275).
T1 sequence (P10275 1-920 Q868H): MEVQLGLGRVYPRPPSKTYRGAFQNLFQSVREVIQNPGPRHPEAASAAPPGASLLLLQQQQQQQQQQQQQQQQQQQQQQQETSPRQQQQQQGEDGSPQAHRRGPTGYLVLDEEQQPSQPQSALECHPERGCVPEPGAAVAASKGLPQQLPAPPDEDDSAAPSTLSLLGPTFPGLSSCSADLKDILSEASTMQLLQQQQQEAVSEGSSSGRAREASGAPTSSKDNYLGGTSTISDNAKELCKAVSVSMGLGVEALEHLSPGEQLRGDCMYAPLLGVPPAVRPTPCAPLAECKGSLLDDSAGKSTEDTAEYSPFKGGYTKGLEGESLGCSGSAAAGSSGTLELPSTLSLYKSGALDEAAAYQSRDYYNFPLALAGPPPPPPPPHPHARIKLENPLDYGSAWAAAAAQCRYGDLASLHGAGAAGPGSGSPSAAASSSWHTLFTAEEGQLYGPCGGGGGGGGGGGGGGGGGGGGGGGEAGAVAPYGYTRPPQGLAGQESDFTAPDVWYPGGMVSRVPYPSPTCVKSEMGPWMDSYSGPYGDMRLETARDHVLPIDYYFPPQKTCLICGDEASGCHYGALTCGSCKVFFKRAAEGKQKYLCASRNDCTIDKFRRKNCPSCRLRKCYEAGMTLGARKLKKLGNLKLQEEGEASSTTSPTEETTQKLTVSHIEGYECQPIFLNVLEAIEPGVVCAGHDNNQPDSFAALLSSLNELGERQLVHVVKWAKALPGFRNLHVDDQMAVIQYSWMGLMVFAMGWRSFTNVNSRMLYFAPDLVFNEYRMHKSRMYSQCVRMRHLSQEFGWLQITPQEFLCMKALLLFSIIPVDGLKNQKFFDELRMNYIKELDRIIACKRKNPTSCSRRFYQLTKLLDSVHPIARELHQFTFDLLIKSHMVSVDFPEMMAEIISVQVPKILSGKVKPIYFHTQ
Nature of the assay: AR antagonist cell assay (MMTV-luciferase reporter). To be noted: read-out: AR Cell IC50; MDA-MB453-MMTV clone 54-19, inhibition of DHT induced luciferase, 17 hr; mean of multiple tests. In kind it is cell-based. In general terms: Reporter assays use an easily measured gene product as a stand-in for the process of interest.

For assay [2], the target named is T2, hAR (human androgen receptor) (Homo sapiens, UniProt P10275).
T2 construct: made in house; host or cells: baculovirus/Sf9 insect cells (crude extract)
T2 sequence (P10275 1-920): T1 sequence (P10275 1-920 Q868H) with H868Q
Nature of the assay: Competitive hAR binding assay with 3H-DHT tracer. To be noted: baculovirus/Sf9 hAR extract, 1 nM 3H-DHT, one hour at 4° C; mean of multiple tests; read-out: AR Binding IC50.

A word on the IC50: it is the concentration needed to halve the response being measured. With `CSc1ccccc1Oc1ccc(C#N)cc1Cl` [Example 5, 3-Chloro-4-(2-methylsulfanyl-phenoxy)-benzonitrile], the IC50 in assay [1] worked out at 48 nM; in assay [2] it was 311 nM.
